According to patent US20220372013A2, “PIPERIDINE-2,6-DIONE DERIVATIVES AND CROHN'S DISEASE TREATING” (Tianjin Hemay Pharmaceutical Sci-Tech Co., Ltd, priority 2016, published 2022):
Marks after values point to notes of the source that are not given here.

Assays:
[1] = system: DNBS-Induced Inflammatory Bowel Disease Models in Rats; test: Biological Example 2: DNBS-induced inflammatory bowel disease models in rats; format: in vivo, Wistar rats; conditions: for Adhesion Degree / Colon Length / Colon Weight / Ulcer Area: sixth day, Mean ± SD
Method: 110 male Wistar rats were fasted for 40 hours. A 5% glucose injection (10 mL/Kg) was administered subcutaneously during fasting. 48 rats with normal conditions and moderate body weight were selected from the fasting rats. The animals were randomly divided into […] according to the body weight: normal control group, model control group, sulfasalazine group (300 mg/Kg), dexamethasone group (0.1 mg/Kg), the compound in Example 26 group (30 mg/kg) and the compound in Example 27 group (30 mg/kg), with 8 rats in each group. The animals were anesthetized with isoflurane. A specially made gavage device (made by a rat gavage device having the diameter of 2 mm, which was nested on a mouse gavage device having the diameter of 1 mm) was slowly inserted into the enteric cavity at 8 cm from the anus. The model control group, the compound in Example 26 group and the compound in Example 27 group were administered with 0.5 mL of 50 mg/mL DNBS in 30% ethanol solution. The normal control group was administered with 0.5 mL of 30% ethanol solution. The animals were inverted in anesthesia for 15 minutes after the gavage device was removed. The day when the model was prepared was the first day of the experiment. After 4 hours of DNBS induction, the corresponding drug or the corresponding volume of 1% CMC-Na was administered once per day. On the sixth day of the experiment, the animals were euthanized to observe the results of each index so as to score the colon adhesion degree, measure the length of colon and ulcer area, weigh colon and calculate the colon weight to length ratio.
The compound in Example 26 and Example 27, sulfasalazine and dexamethasone: Preparation Method: Suspended with 1% CMC-Na, and prepared when it was needed.
Levene's Test for homogeneity of data was performed with Spss. Where the data were homogeneous (P>0.05), one-way ANOVA LSD test was performed. Where the analysis of variance was significant (P≤0.05), Dunnett's multiple comparison (parameter method) was performed. Where the results of Levene's Test were significant (P≤0.05), Kruskal-Wallis nonparametric test was performed. Where the results of Kruskal-Wallis nonparametric test were significant (P≤0.05), Mann-Whitney U test was performed for pairwise comparison.

mice = test: Biological Example 5: acute toxicity experiment of single oral administration in mice; format: in vivo; conditions: single oral 1000 mg/Kg, Mean ± SD
How it was run: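 Fasted ICR mice (19-21 g, three females and three males per group) received a single oral dose of 1000 mg/Kg, given first to one mouse of each sex and then to the remaining four. Behaviour, nervous and autonomic signs, and deaths were recorded over 0-15 min. Animals were then observed for 7 days with daily body weight.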

[2] = system: DNBS-Induced Inflammatory Bowel Disease Models in Rats; test: Biological Example 3: DNBS-induced inflammatory bowel disease models in rats; format: in vivo, Wistar rats; conditions: 30 mg/Kg i.g. qd × 7; for Body weight: Mean ± SD
Method: 102 male Wistar rats were fasted for 40 hours. A 5% glucose injection (10 mL/Kg) was administered subcutaneously during fasting. 72 rats with normal conditions and moderate body weight were selected from the fasting rats. The animals were randomly divided into 9 groups according to the body weight (see Table 9. Grouped Table).
The animals were anesthetized with ether after 40 hours fasting. A specially made gavage device was slowly inserted into the enteric cavity at 8 cm from the anus. The model control group and each test group were administered with 0.5 mL of 50 mg/mL DNBS in 30% ethanol solution. The normal control group was administered with 0.5 mL of 30% ethanol solution. The animals were inverted in anesthesia for 15 minutes. The day when the model was prepared was day 0 of the experiment. After 4 hours of DNBS induction, the corresponding drug or the corresponding volume of 1% CMC-Na was administered once per day. On day 7 of the experiment, the animals were euthanized to score the colon adhesion degree, measure the length of colon and ulcer area, weigh colon and calculate the colon weight to length ratio.
One-way ANOVA analysis of the length of colon and colon weight per length of rats was performed by SPSS22. Statistical analyses between groups were performed. The adhesion degree was scored. Mann-Whitney U non-parametric test was performed on ulcer area. Statistical analyses between groups were performed.
Calculation Formula of Inhibitory rate of weight increase per length: (Colon weight to length ratio in model group−Colon weight to length ratio in administration group)/(Colon weight to length ratio in model group−Colon weight to length ratio in blank group)

SMILES | Daily Body Weight (mice; Female mice, Day 1) | Daily Body Weight (mice; Female mice, Day 2) | Daily Body Weight (mice; Female mice, Day 3) | Daily Body Weight (mice; Female mice, Day 4) | Daily Body Weight (mice; Female mice, Day 5) | Daily Body Weight (mice; Female mice, Day 6) | Daily Body Weight (mice; Female mice, Day 7) | Daily Body Weight (mice; Male mice, Day 1) | Daily Body Weight (mice; Male mice, Day 2) | Daily Body Weight (mice; Male mice, Day 3) | Daily Body Weight (mice; Male mice, Day 4) | Daily Body Weight (mice; Male mice, Day 5) | Daily Body Weight (mice; Male mice, Day 6) | Daily Body Weight (mice; Male mice, Day 7) | other results
C[C@@H]1C[C@H]2[C@@H]3CCC4=CC(=O)C=C[C@]4(C)[C@@]3(F)[C@@H](O)C[C@]2(C)[C@@]1(O)C(=O)CO [Dexamethasone, dexamethasone, reference compound] | – | – | – | – | – | – | – | – | – | – | – | – | – | – | Adhesion Degree ([1]; 0.1 mg/Kg i.g. qd × 6): 0.3 ± 0.5 Points; Colon Length ([1]; 0.1 mg/Kg i.g. qd × 6): 14.2 ± 0.9 cm; Colon Weight ([1]; 0.1 mg/Kg i.g. qd × 6): 1496.0 ± 450.0 mg; Ulcer Area ([1]; 0.1 mg/Kg i.g. qd × 6): 1.4 ± 1.5# cm^2
COCCCCN1C(=O)CCC(N2C(=O)c3cccc(N)c3C2=O)C1=O (stereo not shown) [Example 22, 4-amino-2-(1-(4-methoxybutyl)-2,6-dioxopiperidin-3-yl)isoindolin-1,3-dione] | 18.5 ± 0.6 g | 21.8 ± 0.3 g | 22.9 ± 0.4 g | 24.0 ± 1.0 g | 25.0 ± 0.4 g | 25.3 ± 0.6 g | 25.6 ± 0.2 g | 17.1 ± 0.3 g | 22.9 ± 0.8 g | 23.5 ± 0.9 g | 25.2 ± 0.5 g | 27.2 ± 1.9 g | 27.1 ± 1.8 g | 27.4 ± 1.9 g | Adhesion Degree of Colon ([2]; day 7): 0.8 ± 0.9 point; Colon weight to length ratio ([2]; day 7): 112 ± 40 mg/cm; Inhibitory rate of colon adhesion ([2]; day 7): 52.9# %; Inhibitory rate of ulcer area of colon ([2]; day 7): 40.5%; Inhibitory rate of weight increase per length ([2]; day 7): 54.4# %; Ulcer area of colon ([2]; day 7): 1.84 ± 2.59 cm^2; Body weight ([2]; Day 0): 137.5 ± 7.2 g; Body weight ([2]; Day 1): 137.0 ± 9.0 g; Body weight ([2]; Day 2): 139.7 ± 11.2 g; Body weight ([2]; Day 3): 144.1 ± 12.7 g; Body weight ([2]; Day 4): 152.6 ± 20.0 g; Body weight ([2]; Day 5): 162.7 ± 19.0 g; Body weight ([2]; Day 6): 170.5 ± 17.7 g; Body weight ([2]; Day 7): 178.3 ± 20.7 g
COCCCN1C(=O)CCC(N2C(=O)c3cccc(N)c3C2=O)C1=O (stereo not shown) [Example 26, 4-amino-2-(1-(3-methoxypropyl)-2,6-dioxopiperidin-3-yl)isoindolin-1,3-dione] | 18.0 ± 0.7 g | 21.9 ± 0.3 g | 22.1 ± 0.5 g | 22.4 ± 0.2 g | 22.7 ± 0.3 g | 22.6 ± 0.3 g | 22.4 ± 0.2 g | 18.7 ± 0.8 g | 23.4 ± 0.5 g | 25.0 ± 0.6 g | 26.6 ± 1.4 g | 27.3 ± 1.3 g | 28.3 ± 1.3 g | 28.8 ± 1.4 g | Adhesion Degree ([1]; 30 mg/Kg i.g. qd × 6): 0.3 ± 0.5 Points; Colon Length ([1]; 30 mg/Kg i.g. qd × 6): 13.7 ± 1.4 cm; Colon Weight ([1]; 30 mg/Kg i.g. qd × 6): 1628.3 ± 185.5 mg; Ulcer Area ([1]; 30 mg/Kg i.g. qd × 6): 1.1 ± 0.9## cm^2; therapeutic effects on the model (in words) ([1]; 30 mg/kg i.g. qd × 6): good therapeutic effects; growth rate of the body weight (in words) ([1]; fourth day of the experiment, compared with model control group, doses as in Table 7): higher than that in the model control group
